From patent US12435080B2, “sGC stimulators” (Tisento Therapeutics Inc., priority 2016, dated 2025)
Values joined by “and” are separate entries in the source; they are usually repeats but may differ in a detail not shown here. Equal entries are not always repeated. Where two headings read alike, the source gives them in different places. One block for each molecule: values may come before it.

How the values were obtained:
[1] = Rat cerebrospinal fluid (CSF) pharmacokinetic properties; assay type: in vivo; conditions: for concentration at 1 h: CSF, male Sprague-Dawley rats, PO 10 mg/kg in PEG400, 1 h post-dosing, read-out: CSF Conc. (nM @ 1 h); for Kp uu at 1 h: male, Sprague-Dawley, CSF and plasma (unbound), unbound CSF/unbound plasma ratio, rats, PO 10 mg/kg
Experimental: PK in rats was determined following oral dosing. For the oral (PO) experiments, a group of 6 male Sprague-Dawley rats with an indwelling catheter placed in the cisterna magna were used. The PO group was dosed with 3 or 10 mg/kg of a compound formulated as a solution in PEG400. PO doses were administered by oral gavage and delivered to the stomach using a syringe and gavage tube. Following oral dosage administration, the gavage tube was flushed with approximately 0.5 mL of water to ensure complete delivery of the full dose.
Plasma and CSF samples were collected as follows: samples of CSF and blood were collected at 1 hour and 2 hours post-dosing. CSF samples (0.05 mL) were collected through the intracisternal catheter. Blood samples (0.25 mL) were collected through retro-orbital sampling. These samples were kept on ice until processed for plasma. Blood samples were centrifuged at 3200 rpm for 5 minutes at approximately 5° C. within 1 hour of collection. Plasma was directly transferred to a 96-well plate tube (0.125 mL). Plug caps were placed on the tubes and the tubes frozen at approximately −70° C. and stored until analysis.
Plasma was collected and analyzed for the presence of compound.
The compound in question and the internal standard were extracted from plasma and CSF by precipitation. Samples were analyzed using liquid chromatography (LC) with tandem mass spectrometric detection (MS/MS) using electrospray ionization. The standard curve range was from 1 to 1000 ng/mL. Results of the compounds described herein in this assay are illustrated in Tables 4A (for compounds in Table IA) and 4B (for compounds in Table IB) below.
Kp,uu is defined as the concentration ratio of unbound drug in CSF to unbound drug in plasma. Unbound drug in plasma (or free plasma concentration) is calculated by multiplying the total plasma concentration by the unbound fraction as determined by plasma protein binding. The CSF concentration is then divided by the free plasma concentration to determine the Kp,uu. (See e.g., Di et al., J. Med. Chem., 56, 2-12 (2013))

[2] = molecular target: T1, sGC enzyme (Homo sapiens, UniProt Q02108+Q02153); test: cGMP GloSensor cell-based assay, 384-well format; conditions: HEK293 cells expressing GloSensor 40F cGMP, 10 μM DETA-NONOate, normalized to 30 μM Compound Y
T1 construct: incorporated into these cells detect cGMP formed by the compounds stimulating the sGC enzyme; host or cells: HEK293 cells stably expressing GloSensor 40F cGMP biosensor
T1 sequence (Q02153 1-619): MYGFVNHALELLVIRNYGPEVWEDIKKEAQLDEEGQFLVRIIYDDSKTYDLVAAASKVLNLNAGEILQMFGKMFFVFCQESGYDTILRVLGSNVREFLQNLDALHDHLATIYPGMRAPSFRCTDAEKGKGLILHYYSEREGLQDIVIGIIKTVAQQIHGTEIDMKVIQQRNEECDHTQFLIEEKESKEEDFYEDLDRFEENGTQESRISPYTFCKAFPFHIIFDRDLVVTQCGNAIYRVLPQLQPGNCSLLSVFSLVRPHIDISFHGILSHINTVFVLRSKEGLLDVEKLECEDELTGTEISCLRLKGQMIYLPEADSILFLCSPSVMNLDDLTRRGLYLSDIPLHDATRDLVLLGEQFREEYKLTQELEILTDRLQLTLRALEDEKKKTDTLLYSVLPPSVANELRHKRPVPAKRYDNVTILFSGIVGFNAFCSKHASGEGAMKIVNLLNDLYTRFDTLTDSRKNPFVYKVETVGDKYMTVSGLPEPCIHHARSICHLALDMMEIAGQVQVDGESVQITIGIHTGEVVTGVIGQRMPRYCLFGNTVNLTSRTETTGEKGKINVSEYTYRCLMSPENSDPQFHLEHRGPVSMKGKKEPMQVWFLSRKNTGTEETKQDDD
T1 sequence (Q02108 1-690): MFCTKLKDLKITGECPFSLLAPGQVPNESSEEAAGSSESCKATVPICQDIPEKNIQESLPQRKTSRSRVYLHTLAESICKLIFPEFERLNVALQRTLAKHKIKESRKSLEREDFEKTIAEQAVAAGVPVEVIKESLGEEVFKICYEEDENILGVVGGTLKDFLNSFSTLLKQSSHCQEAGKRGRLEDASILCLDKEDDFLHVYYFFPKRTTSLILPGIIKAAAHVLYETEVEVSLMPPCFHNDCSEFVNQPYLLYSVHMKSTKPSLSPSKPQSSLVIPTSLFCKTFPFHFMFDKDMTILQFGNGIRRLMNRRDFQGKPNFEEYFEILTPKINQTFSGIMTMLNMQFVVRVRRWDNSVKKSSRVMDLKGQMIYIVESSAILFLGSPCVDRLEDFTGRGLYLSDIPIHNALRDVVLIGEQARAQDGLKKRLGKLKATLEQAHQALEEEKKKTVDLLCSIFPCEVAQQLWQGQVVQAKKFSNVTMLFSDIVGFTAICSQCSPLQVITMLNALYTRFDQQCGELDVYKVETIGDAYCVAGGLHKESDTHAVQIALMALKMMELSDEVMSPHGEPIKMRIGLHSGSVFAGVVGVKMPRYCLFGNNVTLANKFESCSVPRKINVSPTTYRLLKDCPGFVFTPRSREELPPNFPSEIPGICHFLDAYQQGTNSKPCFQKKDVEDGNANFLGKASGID
Procedure, shortened: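 HEK293 cells expressing GloSensor 40F cGMP luciferase biosensor, preloaded with 2 mM GloSensor substrate for 90 min at 25 °C. Endpoint luminescence read after 55 min compound incubation at room temperature.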

[3] = compounds in Table IA, read-out: Glo-sensor AbsEC50
[4] = compounds in Table IB, read-out: Glo-sensor Abs EC50

SMILES: N#Cc1n[nH]c(-c2nn(Cc3cccc(F)c3F)c3ncccc23)n1 [Compound I-92, 5-(1-(2,3-Difluorobenzyl)-1H-pyrazolo[3,4-b]pyridin-3-yl)-1H-1,2,4-triazole-3-carbonitrile]
concentration at 1 h ([1]; compounds in Table IA): 10.8 nM
Kp uu at 1 h ([1]; compounds in Table IA): 0.52
EC50 [2, 3]: < 100 nM

SMILES: Cc1n[nH]c(-c2nc(Cc3cncnc3)c3ccccn23)n1 [Compound I-5, 3-(3-methyl-1H-1,2,4-triazol-5-yl)-1-(pyrimidin-5-ylmethyl)imidazo[1,5-a]pyridine]
concentration at 1 h ([1]; compounds in Table IB): 30.4 nM
Kp uu at 1 h ([1]; compounds in Table IB): 1.08
EC50 [2, 4]: 100 to 1000 nM

SMILES: Fc1ccccc1Cn1nc(-c2nc(C(F)F)n[nH]2)c2cccnc21 [Compound I-20, 3-(3-(Difluoromethyl)-1H-1,2,4-triazol-5-yl)-1-(2-fluorobenzyl)-1H-pyrazolo[3,4-b]pyridine]
concentration at 1 h ([1]; compounds in Table IA): 207 nM
Kp uu at 1 h ([1]; compounds in Table IA): 3.37
EC50 [2, 3]: < 100 nM

SMILES: Fc1ccccc1Cn1nc(-c2nc(C3CNC3)n[nH]2)c2cccnc21 [Compound I-73, 3-(3-(azetidin-3-yl)-1H-1,2,4-triazol-5-yl)-1-(2-fluorobenzyl)-1H-pyrazolo[3,4-b]pyridine]
EC50 [2, 3]: > 1000 nM and < 100 nM

SMILES: CC(C)(C)OC(=O)NC1(c2n[nH]c(-c3nn(Cc4ccccc4F)c4ncccc34)n2)COC1 [Compound I-76, tert-Butyl (3-(5-(1-(2-fluorobenzyl)-1H-pyrazolo[3,4-b]pyridin-3-yl)-1H-1,2,4-triazol-3-yl)oxetan-3-yl)carbamate]
EC50 [2, 3]: 100 to 1000 nM

SMILES: CCC(=O)c1n[nH]c(-c2nn(Cc3ccccc3F)c3ncccc23)n1 [Compound I-66]
EC50 [2, 3]: > 1000 nM

SMILES: COCc1n[nH]c(-c2nn(Cc3ccccc3F)c3ncccc23)n1 [Compound I-112, 1-(2-Fluorobenzyl)-3-(3-(methoxymethyl)-1H-1,2,4-triazol-5-yl)-1H-pyrazolo[3,4-b]pyridine]
EC50 [2, 3]: 100 to 1000 nM

SMILES: COCCC(O)c1n[nH]c(-c2nn(Cc3ccccc3F)c3ncccc23)n1 (centres unmarked) [Compound I-116, 1-(5-(1-(2-fluorobenzyl)-1H-pyrazolo[3,4-b]pyridin-3-yl)-1H-1,2,4-triazol-3-yl)-3-methoxypropan-1-ol]
EC50 [2, 3]: 100 to 1000 nM

SMILES: FC(F)(F)c1n[nH]c(-c2nc(Cc3cncnc3)c3ncccn23)n1 [Compound I-17]
EC50 [2, 4]: < 100 nM

Continued, values first:

concentration at 1 h ([1]; compounds in Table IB): 45 nM
Kp uu at 1 h ([1]; compounds in Table IB): 0.16
EC50 [2, 4]: < 100 nM
SMILES: Fc1ccc2c(Cc3cncnc3)nc(-c3nc(C(F)(F)F)n[nH]3)n2c1 [Compound I-12, 6-fluoro-1-(pyrimidin-5-ylmethyl)-3-(3-(trifluoromethyl)-1H-1,2,4-triazol-5-yl)imidazo[1,5-a]pyridine]

concentration at 1 h ([1]; compounds in Table IA): 164 nM
Kp uu at 1 h ([1]; compounds in Table IA): 0.24
EC50 [2, 3]: < 100 nM
SMILES: Fc1cncc(Cn2nc(-c3nc(C(F)(F)F)n[nH]3)c3cccnc32)c1 [Compound I-1, 1-((5-fluoropyridin-3-yl)methyl)-3-(3-(trifluoromethyl)-1H-1,2,4-triazol-5-yl)-1H-pyrazolo[3,4-b]pyridine]

EC50 [2, 3]: 100 to 1000 nM
SMILES: Fc1cccnc1Cn1nc(-c2nc(C(F)(F)F)n[nH]2)c2cccnc21 [Compound I-13, 1-((3-Fluoropyridin-2-yl)methyl)-3-(3-(trifluoromethyl)-1H-1,2,4-triazol-5-yl)-1H-pyrazolo[3,4-b]pyridine]

EC50 [2, 4]: > 1000 nM
SMILES: Fc1ccccc1Cc1nc(-c2nc(C(F)(F)F)n[nH]2)n2ncccc12 [Compound I-24, 5-(2-Fluorobenzyl)-7-(3-(trifluoromethyl)-1H-1,2,4-triazol-5-yl)imidazo[1,5-b]pyridazine]

EC50 [2, 3]: < 100 nM
SMILES: Cc1ccc2c(-c3nc(C(F)(F)F)n[nH]3)nn(Cc3ccccc3F)c2n1 [Compound I-50, 1-(2-Fluorobenzyl)-6-methyl-3-(3-(trifluoromethyl)-1H-1,2,4-triazol-5-yl)-1H-pyrazolo[3,4-b]pyridine]

EC50 [2, 3]: < 100 nM
SMILES: Cc1ccc(Cn2nc(-c3nc(C(F)(F)F)n[nH]3)c3cccnc32)cc1 [Compound I-54, 1-(4-Methylbenzyl)-3-(3-(trifluoromethyl)-1H-1,2,4-triazol-5-yl)-1H-pyrazolo[3,4-b]pyridine]

EC50 [2, 3]: 100 to 1000 nM
SMILES: FC(F)(F)c1n[nH]c(-c2nn(CCC(F)(F)C(F)(F)F)c3cc(Cl)ccc23)n1 [Compound I-3, 6-chloro-1-(3,3,4,4,4-pentafluorobutyl)-3-(3-(trifluoromethyl)-1H-1,2,4-triazol-5-yl)-1H-indazole]

EC50 [2, 3]: 100 to 1000 nM
SMILES: Fc1ccccc1Cn1nc(-c2nc(C(F)(F)F)n[nH]2)c2ccncc21 [Compound I-32]

EC50 [2, 4]: 100 to 1000 nM
SMILES: Cc1ncc(Cc2nc(-c3nc(C(F)(F)F)n[nH]3)n3ccc(Cl)cc23)cn1 [Compound I-29, 7-Chloro-1-((2-methylpyrimidin-5-yl)methyl)-3-(3-(trifluoromethyl)-1H-1,2,4-triazol-5-yl)imidazo[1,5-a]pyridine]

EC50 [2, 3]: 100 to 1000 nM
SMILES: Fc1cc(F)cc(Cc2nn(-c3nc(C(F)(F)F)n[nH]3)c3cccnc23)c1 [Compound I-121, 3-(3,5-Difluorobenzyl)-1-(3-(trifluoromethyl)-1H-1,2,4-triazol-5-yl)-1H-pyrazolo[4,3-b]pyridine]
